Legend:
[1] = Toxicity in mouse allografted with mouse BaF3 cells harbouring KIF5B-RET G810R mutant assessed as drug tolerance at 10 to 30 mg/kg BID measured upto 14 days; type: organism-based; conditions: in vivo, 336 h, dose 10-30 mg/kg, time < 14 day
[2] = Half life in male Sprague-Dawley rat at 1 mg/kg, iv; type: ADME, organism-based; conditions: in vivo
[3] = target: Proto-oncogene tyrosine-protein kinase receptor Ret (Homo sapiens, UniProt P07949, G810C); assay: Inhibition of RET G810C mutant (unknown origin) by FRET-based ZLyte kinase assay
Chain of Proto-oncogene tyrosine-protein kinase receptor Ret (Homo sapiens, UniProt P07949, G810C) (P07949 29-1114 G810C limits assumed): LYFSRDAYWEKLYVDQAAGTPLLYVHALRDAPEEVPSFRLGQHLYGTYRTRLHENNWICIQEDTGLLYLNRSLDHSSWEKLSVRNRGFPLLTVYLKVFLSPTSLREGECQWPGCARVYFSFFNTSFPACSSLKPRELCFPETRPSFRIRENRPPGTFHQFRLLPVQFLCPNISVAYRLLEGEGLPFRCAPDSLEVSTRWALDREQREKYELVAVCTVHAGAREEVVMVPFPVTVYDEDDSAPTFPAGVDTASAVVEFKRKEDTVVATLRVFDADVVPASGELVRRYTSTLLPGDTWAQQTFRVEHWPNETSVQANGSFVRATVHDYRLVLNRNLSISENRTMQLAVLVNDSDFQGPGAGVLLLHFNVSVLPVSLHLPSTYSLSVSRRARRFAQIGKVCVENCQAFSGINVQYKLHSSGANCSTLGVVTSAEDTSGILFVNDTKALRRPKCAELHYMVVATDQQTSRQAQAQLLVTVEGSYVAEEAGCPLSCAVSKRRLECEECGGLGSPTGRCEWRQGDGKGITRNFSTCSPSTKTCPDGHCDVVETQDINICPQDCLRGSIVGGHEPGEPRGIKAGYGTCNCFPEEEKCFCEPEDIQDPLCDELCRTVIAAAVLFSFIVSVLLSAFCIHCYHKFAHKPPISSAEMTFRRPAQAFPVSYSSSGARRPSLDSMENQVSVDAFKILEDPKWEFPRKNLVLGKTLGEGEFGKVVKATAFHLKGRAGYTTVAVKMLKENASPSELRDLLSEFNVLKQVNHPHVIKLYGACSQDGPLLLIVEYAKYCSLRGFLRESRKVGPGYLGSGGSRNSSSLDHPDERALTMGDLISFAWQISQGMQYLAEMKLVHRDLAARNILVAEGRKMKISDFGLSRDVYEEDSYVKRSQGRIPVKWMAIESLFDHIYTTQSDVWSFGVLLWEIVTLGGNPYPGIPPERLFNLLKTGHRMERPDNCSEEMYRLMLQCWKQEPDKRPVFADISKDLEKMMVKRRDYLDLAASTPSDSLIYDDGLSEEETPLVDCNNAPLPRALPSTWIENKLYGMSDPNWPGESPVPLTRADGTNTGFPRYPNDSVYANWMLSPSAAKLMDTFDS

[4] = target: Proto-oncogene tyrosine-protein kinase receptor Ret (Homo sapiens, UniProt P07949, M918T); assay: Inhibition of RET M918T mutant (unknown origin) by FRET-based ZLyte kinase assay
Chain of Proto-oncogene tyrosine-protein kinase receptor Ret (Homo sapiens, UniProt P07949, M918T) (P07949 29-1114 M918T limits assumed): as the sequence (P07949 29-1114 G810C limits assumed) above, with C782G, M890T counted along it

[5] = Apparent volume of distribution in male Sprague-Dawley rat at 5 mg/kg, IG; type: ADME, organism-based; conditions: in vivo, po
[6] = Cmax in male Sprague-Dawley rat at 1 mg/kg, iv; type: ADME, organism-based; conditions: in vivo
[7] = target: Epithelial discoidin domain-containing receptor 1 (Homo sapiens, UniProt Q08345); assay: Inhibition of DDR1 (unknown origin) by FRET-based Z-Lyte kinase assay
[8] = Toxicity in mouse allografted with mouse BaF3 cells harbouring KIF5B-RET-wild type assessed as effect on body weight loss at 10 mg/kg BID measured upto 14 days; type: organism-based; conditions: in vivo, 336 h, time < 14 day
[9] = Half life in male Sprague-Dawley rat at 5 mg/kg, IG; type: ADME, organism-based; conditions: in vivo, po
[10] = target: T1, Receptor-type tyrosine-protein kinase FLT3 (Homo sapiens, UniProt P36888); assay: Inhibition of FLT3 (unknown origin) by FRET-based Z-Lyte kinase assay
T1 sequence (P36888 whole entry): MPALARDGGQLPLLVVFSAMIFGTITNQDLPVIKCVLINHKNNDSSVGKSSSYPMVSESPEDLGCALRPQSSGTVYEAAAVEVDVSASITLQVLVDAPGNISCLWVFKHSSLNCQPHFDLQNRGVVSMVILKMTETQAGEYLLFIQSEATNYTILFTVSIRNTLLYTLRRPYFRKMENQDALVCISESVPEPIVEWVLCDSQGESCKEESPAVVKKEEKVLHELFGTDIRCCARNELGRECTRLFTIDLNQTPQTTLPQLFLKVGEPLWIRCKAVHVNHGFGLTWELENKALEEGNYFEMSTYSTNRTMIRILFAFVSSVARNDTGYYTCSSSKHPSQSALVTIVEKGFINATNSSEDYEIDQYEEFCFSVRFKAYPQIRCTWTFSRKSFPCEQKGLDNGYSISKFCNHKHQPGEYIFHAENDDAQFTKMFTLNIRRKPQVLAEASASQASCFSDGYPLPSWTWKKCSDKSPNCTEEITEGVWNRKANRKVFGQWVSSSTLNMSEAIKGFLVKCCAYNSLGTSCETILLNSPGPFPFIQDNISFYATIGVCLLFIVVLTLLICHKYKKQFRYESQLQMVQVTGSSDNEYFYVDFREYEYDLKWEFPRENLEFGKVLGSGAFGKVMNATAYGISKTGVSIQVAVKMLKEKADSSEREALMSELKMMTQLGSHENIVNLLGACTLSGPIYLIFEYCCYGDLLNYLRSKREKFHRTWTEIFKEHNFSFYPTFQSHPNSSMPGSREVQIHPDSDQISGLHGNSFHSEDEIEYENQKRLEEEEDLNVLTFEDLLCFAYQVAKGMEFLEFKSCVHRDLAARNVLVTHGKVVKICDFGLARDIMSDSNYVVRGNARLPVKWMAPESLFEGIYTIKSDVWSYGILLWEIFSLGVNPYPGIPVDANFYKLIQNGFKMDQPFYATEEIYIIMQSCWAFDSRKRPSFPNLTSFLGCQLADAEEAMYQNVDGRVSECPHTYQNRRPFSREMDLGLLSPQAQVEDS

[11] = Toxicity in mouse allografted with mouse BaF3 cells harbouring KIF5B-RET G810R mutant assessed as mortality at 10 to 30 mg/kg BID measured upto 14 days; type: organism-based; conditions: in vivo, 336 h, dose 10-30 mg/kg, time < 14 day
[12] = Cmax in male Sprague-Dawley rat at 5 mg/kg, IG; type: ADME, organism-based; conditions: in vivo, po
[13] = target: Proto-oncogene tyrosine-protein kinase receptor Ret (Homo sapiens, UniProt P07949, G810S); assay: Inhibition of RET G810S mutant (unknown origin) by FRET-based ZLyte kinase assay
Chain of Proto-oncogene tyrosine-protein kinase receptor Ret (Homo sapiens, UniProt P07949, G810S) (P07949 29-1114 G810S limits assumed): as the sequence (P07949 29-1114 G810C limits assumed) above, with C782S counted along it

[14] = AUC (0 to infinity) in male Sprague-Dawley rat at 1 mg/kg, iv; type: ADME, organism-based; conditions: in vivo
[15] = target: Proto-oncogene tyrosine-protein kinase receptor Ret (Homo sapiens, UniProt P07949, G810R); assay: Inhibition of RET G810R mutant (unknown origin) by FRET-based ZLyte kinase assay
Chain of Proto-oncogene tyrosine-protein kinase receptor Ret (Homo sapiens, UniProt P07949, G810R) (P07949 29-1114 G810R limits assumed): as the sequence (P07949 29-1114 G810C limits assumed) above, with C782R counted along it

[16] = Apparent volume of distribution in male Sprague-Dawley rat at 1 mg/kg, iv; type: ADME, organism-based; conditions: in vivo, read-out: Vz
[17] = target: Proto-oncogene tyrosine-protein kinase receptor Ret (Homo sapiens, UniProt P07949, V804M); assay: Inhibition of RET V804M mutant (unknown origin) by FRET-based ZLyte kinase assay
Chain of Proto-oncogene tyrosine-protein kinase receptor Ret (Homo sapiens, UniProt P07949, V804M) (P07949 29-1114 V804M limits assumed): as the sequence (P07949 29-1114 G810C limits assumed) above, with V776M, C782G counted along it

[18] = target: Vascular endothelial growth factor receptor 2 (Homo sapiens, UniProt P35968); assay: Inhibition of KDR (unknown origin) by FRET-based Z-Lyte kinase assay
[19] = target: Proto-oncogene tyrosine-protein kinase receptor Ret (Homo sapiens, UniProt P07949, V804L); assay: Inhibition of RET V804L mutant (unknown origin) by FRET-based ZLyte kinase assay
Chain of Proto-oncogene tyrosine-protein kinase receptor Ret (Homo sapiens, UniProt P07949, V804L) (P07949 29-1114 V804L limits assumed): as the sequence (P07949 29-1114 G810C limits assumed) above, with V776L, C782G counted along it

[20] = target: Tyrosine-protein kinase JAK2 (Homo sapiens, UniProt O60674); assay: Inhibition of JAK2 (unknown origin) by FRET-based Z-Lyte kinase assay
Chain of Tyrosine-protein kinase JAK2 (O60674 whole entry): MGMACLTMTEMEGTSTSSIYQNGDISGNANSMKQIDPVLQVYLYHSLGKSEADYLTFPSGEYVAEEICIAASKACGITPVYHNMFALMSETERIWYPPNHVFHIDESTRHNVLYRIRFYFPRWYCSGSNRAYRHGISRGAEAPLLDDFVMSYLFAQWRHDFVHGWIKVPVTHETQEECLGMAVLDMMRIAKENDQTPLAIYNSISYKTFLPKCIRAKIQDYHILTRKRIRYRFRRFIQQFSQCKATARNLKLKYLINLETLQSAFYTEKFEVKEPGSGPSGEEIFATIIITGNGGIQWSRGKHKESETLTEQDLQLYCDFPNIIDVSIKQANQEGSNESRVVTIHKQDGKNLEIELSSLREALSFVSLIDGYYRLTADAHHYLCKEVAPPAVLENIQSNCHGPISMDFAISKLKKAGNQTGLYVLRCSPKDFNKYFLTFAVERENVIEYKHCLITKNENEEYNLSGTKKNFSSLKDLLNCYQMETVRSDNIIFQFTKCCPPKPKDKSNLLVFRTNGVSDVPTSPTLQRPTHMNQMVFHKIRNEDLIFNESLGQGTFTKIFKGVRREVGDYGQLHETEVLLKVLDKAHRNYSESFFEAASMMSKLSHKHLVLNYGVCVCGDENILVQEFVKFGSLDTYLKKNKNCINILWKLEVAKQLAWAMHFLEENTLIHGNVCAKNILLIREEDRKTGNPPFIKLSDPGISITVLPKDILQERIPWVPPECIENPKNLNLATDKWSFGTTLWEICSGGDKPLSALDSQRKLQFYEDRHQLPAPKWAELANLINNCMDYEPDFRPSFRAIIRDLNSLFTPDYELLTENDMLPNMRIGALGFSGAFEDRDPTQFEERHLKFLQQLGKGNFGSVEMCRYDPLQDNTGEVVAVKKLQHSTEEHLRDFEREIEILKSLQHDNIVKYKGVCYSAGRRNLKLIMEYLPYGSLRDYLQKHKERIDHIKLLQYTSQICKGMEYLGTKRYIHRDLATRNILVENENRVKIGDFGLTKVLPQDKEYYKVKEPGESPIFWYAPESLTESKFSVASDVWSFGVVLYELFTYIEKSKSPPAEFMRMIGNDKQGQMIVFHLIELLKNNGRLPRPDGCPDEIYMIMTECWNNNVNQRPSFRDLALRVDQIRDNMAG

[21] = Toxicity in mouse allografted with mouse BaF3 cells harbouring KIF5B-RET G810R mutant assessed as effect on body weight loss at 10 to 30 mg/kg BID measured upto 14 days; type: organism-based; conditions: in vivo, 336 h, dose 10-30 mg/kg, time < 14 day
[22] = target: Proto-oncogene tyrosine-protein kinase receptor Ret (Homo sapiens, UniProt P07949); assay: Inhibition of wild type RET (unknown origin) by FRET-based ZLyte kinase assay
[23] = Oral bioavailability in male Sprague-Dawley rat at 5 mg/kg, IG; type: ADME, organism-based; conditions: in vivo
[24] = Toxicity in mouse allografted with mouse BaF3 cells harbouring KIF5B-RET-wild type assessed as drug tolerance at 10 mg/kg BID measured upto 14 days; type: organism-based; conditions: in vivo, 336 h, time < 14 day
[25] = Clearance in male Sprague-Dawley rat at 1 mg/kg, iv; type: ADME, organism-based; conditions: in vivo
[26] = AUC (0 to infinity) in male Sprague-Dawley rat at 5 mg/kg, IG; type: ADME, organism-based; conditions: in vivo, po
[27] = target: Fibroblast growth factor receptor 4 (Homo sapiens, UniProt P22455); assay: Inhibition of FGFR4 (unknown origin) by FRET-based Z-Lyte kinase assay
Chain of Fibroblast growth factor receptor 4 (P22455 whole entry): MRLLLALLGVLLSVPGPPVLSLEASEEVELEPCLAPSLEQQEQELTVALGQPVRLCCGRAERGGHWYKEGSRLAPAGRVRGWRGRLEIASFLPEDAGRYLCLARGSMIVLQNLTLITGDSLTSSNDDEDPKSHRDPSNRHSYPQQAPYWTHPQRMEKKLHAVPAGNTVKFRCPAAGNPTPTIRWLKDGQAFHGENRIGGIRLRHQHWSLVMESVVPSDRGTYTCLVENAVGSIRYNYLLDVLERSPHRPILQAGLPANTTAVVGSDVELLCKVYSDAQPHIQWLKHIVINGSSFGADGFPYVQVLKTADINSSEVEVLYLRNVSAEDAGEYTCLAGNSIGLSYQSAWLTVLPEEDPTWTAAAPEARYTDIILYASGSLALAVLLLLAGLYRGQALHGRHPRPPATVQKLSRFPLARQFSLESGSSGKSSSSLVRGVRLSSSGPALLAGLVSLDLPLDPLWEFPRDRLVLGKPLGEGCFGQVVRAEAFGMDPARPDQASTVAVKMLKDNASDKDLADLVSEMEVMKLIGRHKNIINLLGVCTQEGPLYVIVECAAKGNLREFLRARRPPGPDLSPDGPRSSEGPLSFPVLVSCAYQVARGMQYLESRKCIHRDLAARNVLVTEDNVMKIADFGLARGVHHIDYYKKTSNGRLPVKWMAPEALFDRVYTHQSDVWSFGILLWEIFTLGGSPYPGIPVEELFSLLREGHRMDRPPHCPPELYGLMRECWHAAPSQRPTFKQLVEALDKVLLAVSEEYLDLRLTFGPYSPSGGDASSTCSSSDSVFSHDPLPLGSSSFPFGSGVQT

[28] = Toxicity in mouse allografted with mouse BaF3 cells harbouring KIF5B-RET-wild type assessed as mortality at 10 mg/kg BID measured upto 14 days; type: organism-based; conditions: in vivo, 336 h, time < 14 day
[29] = Tmax in male Sprague-Dawley rat at 5 mg/kg, IG; type: ADME, organism-based; conditions: in vivo, po
[30] = Clearance in male Sprague-Dawley rat at 5 mg/kg, IG; type: ADME, organism-based; conditions: in vivo, po
[31] = target: Vascular endothelial growth factor receptor 3 (Homo sapiens, UniProt P35916); assay: Inhibition of FLT4 (unknown origin) by FRET-based Z-Lyte kinase assay
[32] = target: Vascular endothelial growth factor receptor 1 (Homo sapiens, UniProt P17948); assay: Inhibition of FLT1 (unknown origin) by FRET-based Z-Lyte kinase assay
Chain of Vascular endothelial growth factor receptor 1 (P17948 whole entry): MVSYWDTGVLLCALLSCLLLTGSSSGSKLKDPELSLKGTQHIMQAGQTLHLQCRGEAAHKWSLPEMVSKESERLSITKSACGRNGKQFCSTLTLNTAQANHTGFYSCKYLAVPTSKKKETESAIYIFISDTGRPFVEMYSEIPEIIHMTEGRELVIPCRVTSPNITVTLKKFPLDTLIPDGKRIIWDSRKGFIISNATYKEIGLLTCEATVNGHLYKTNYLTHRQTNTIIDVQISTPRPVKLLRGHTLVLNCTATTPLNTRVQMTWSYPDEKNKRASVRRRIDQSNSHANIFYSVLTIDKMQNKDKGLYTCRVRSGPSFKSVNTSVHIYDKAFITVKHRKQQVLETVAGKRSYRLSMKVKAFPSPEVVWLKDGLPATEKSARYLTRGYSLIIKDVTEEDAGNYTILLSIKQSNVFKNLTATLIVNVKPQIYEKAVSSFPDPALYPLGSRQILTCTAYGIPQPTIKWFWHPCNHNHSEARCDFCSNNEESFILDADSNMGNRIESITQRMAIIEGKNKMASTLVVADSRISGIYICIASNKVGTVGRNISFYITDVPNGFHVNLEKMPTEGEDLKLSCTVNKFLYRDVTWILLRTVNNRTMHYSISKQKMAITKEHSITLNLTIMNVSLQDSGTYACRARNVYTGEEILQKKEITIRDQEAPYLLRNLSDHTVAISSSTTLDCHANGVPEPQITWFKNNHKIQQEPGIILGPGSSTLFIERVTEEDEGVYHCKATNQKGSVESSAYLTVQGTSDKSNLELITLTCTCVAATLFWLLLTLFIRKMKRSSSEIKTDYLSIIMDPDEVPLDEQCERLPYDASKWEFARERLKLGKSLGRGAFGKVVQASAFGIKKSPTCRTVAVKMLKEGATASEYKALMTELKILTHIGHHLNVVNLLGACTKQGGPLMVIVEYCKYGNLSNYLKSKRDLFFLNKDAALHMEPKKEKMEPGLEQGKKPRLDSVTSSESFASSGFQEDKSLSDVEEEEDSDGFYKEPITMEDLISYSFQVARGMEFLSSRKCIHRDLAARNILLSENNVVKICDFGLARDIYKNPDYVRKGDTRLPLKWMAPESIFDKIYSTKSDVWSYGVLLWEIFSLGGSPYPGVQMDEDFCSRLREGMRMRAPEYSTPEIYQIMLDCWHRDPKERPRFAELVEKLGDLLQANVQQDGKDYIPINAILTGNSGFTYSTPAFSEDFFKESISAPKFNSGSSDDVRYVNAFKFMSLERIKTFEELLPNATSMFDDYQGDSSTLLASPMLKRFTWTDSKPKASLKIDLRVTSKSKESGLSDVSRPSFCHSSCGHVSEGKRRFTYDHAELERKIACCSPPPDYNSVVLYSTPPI

COc1ccc(CN2C3CC2CN(c2ccc(-c4nc(-c5cnn(C)c5)cc5ncccc45)cn2)C3)cc1C#N
Activity [1]: Non-Toxic
half-life [2]: 5 h
IC50 [3]: 7.1 nM
IC50 [4]: 0.4 nM
Vz [5]: 48.1 L/kg
Cmax [6]: 265 ng/mL
IC50 [7]: 334 nM
Activity [8]: Non-Toxic
half-life [9]: 4.6 h
IC50 [10]: 52.7 nM
Activity [11]: Non-Toxic
Cmax [12]: 140 ng/mL
IC50 [13]: 5.7 nM
AUC(0-inf) [14]: 451 ng·h/mL
IC50 [15]: 8.3 nM
Vd [16]: 17.2 L/kg
IC50 [17]: 1.8 nM
IC50 [18]: 27.3 nM
IC50 [19]: 0.2 nM
IC50 [20]: 2650 nM
Activity [21]: Non-Toxic
IC50 [22]: 3.2 nM
bioavailability [23]: 30.4%
Activity [24]: Non-Toxic
clearance [25]: 40 mL/min/kg
AUC(0-inf) [26]: 686 ng·h/mL
IC50 [27]: 113 nM
Activity [28]: Non-Toxic
Tmax [29]: 1.6 h
CL/F [30]: 122 mL/min/kg
IC50 [31]: 5.1 nM
IC50 [32]: 34.9 nM

Reference: ChEMBL document CHEMBL6127078, “Discovery of 7-(1-methyl-1H-pyrazol-4-yl)-1,6-naphthyridine derivatives as potent inhibitors of rearranged during transfection (RET) and RET solvent-front mutants for overcoming selpercatinib resistance” (Eur J Med Chem, 2024)
